# PMC8002512, “IRE1α Is a Therapeutic Target for Cystic Fibrosis Airway Inflammation” (International Journal of Molecular Sciences, 2021)
# Target: T1, IRE1α (Homo sapiens, UniProt O75460)
# T1 construct: gene ERN1; cytoplasmic portion, kinase and RNase domains, residues 547-977 of NP_001424, N-terminal His-tagged (Sf9)
# Assay: TR-FRET (LanthaScreen) displacement of tracer […] from purified His-tagged IRE1α
# Type: binding
# T1 sequence (O75460 547-977): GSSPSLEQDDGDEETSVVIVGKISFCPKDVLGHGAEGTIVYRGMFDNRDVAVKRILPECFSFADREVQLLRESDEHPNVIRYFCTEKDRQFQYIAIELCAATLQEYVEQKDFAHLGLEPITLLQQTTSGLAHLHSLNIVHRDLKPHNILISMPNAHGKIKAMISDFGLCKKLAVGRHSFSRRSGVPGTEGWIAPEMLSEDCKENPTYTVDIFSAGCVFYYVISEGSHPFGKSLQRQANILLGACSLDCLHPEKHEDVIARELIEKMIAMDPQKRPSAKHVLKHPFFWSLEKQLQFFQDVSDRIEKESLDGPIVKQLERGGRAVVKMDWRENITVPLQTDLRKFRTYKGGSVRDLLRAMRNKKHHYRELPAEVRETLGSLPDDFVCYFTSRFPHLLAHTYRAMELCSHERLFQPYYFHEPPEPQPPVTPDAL
compound,measurement,value
CC(C)(C)c1nc(-c2ccc(NC(=O)Nc3cccc(C(F)(F)F)c3)c3ccccc23)c2c(N)nccn12 [KIRA6],Kd,280 nM
